Results from the supplement of paper PMC5412046.
Several values for one entry are separate records, joined by “and”; a condition that tells them apart may be missing. Identical values can stand only once. Counter-ions that a name gives are not always drawn.

What was measured:
[1] = system: SB.mhdgc-1; experiment: viability at highest tested concentration (MAXR) relative to DMSO; higher = less cytotoxic; details: SB.mhdgc-1 (hereditary c.1380delA CDH1 gastric cancer)
Method in brief: (§1)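 Compound in DMSO was pinned (23 nL) at 11 threefold-diluted concentrations into wells containing 500 patient-derived gastric cancer cells, hereditary or sporadic, in 5 μL medium per 1536 well. Cells were incubated for 48 h, then exposed to CellTiter-Glo for 30 min at room temperature. Luminescence was measured on a ViewLux. The values are viability normalised to DMSO, either at the highest concentration or as trapezoidal area under the curve.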

[2] = system: SB.msgc-1; experiment: as above; details: SB.msgc-1 (sporadic gastric cancer)
Method in brief: as §1

[3] = system: SB.mhdgc-1; experiment: area under the dose-response curve of % viability (trapezoidal, 11 doses) (% viability x log10 concentration); higher = less cytotoxic; details: SB.mhdgc-1 (hereditary c.1380delA CDH1 gastric cancer)
Method in brief: as §1

[4] = system: SB.msgc-1; experiment: as above; details: SB.msgc-1 (sporadic gastric cancer)
Method in brief: as §1

| Compound | viability [1] | viability [2] | area under the dose-response curve [3] | area under the dose-response curve [4] |
| --- | --- | --- | --- | --- |
| N[C@@H](Cc1cc(I)c(Oc2cc(I)c(O)c(I)c2)c(I)c1)C(=O)O [L-Thyroxine] (top concentration 46.0829 µM) | 68.1% | 98.7% | 467 | 555 |
| NC(=O)c1ncn([C@@H]2O[C@H](CO)[C@@H](O)[C@H]2O)n1 [Ribavirin] (top concentration 46.0829 µM) | 130% | 99.2% | 656 | 594 |
| COc1cc2ncnc(Nc3cc(Br)c(O)c(Br)c3)c2cc1OC [WHI-P97] (top concentration 46.0829 µM) | 54.9% | 33.9% | 279 | 294 |
| COc1cc2ncn(-c3cc(OCc4ccccc4[S+](C)(=O)[O-])c(C#N)s3)c2cc1OC [IKK-3 Inhibitor IX] (top concentration 46.0829 µM) | 52.9% | 93.1% | 448 | 510 |
| FC1=CC=C(SC/2=N/N3\C=N/C(=O)/C(=C3/C=C2)C4=C(Cl)C=CC=C4Cl)C(=C1)F [VX-745] (top concentration 46.0829 µM) | 33.6% | 62% | 542 | 495 |
| Nc1ncnc2c1ncn2[C@@H]1O[C@H](CO)C[C@H]1O [Cordycepin] (top concentration 46.0829 µM) | 108% | 55.5% | 501 | 390 |
| C=C1/C(=C\C=C2/CCC[C@]3(C)[C@@H]([C@H](C)/C=C/[C@H](C)C(C)C)CC[C@@H]23)C[C@@H](O)C[C@@H]1O [Doxercalciferol] (top concentration 46.0829 µM) | 18.7% | 3.9% | 369 | 340 |
| CCOC(=O)O[C@]1(C(=O)OCCl)CC[C@H]2[C@@H]3CCC4=CC(=O)C=C[C@]4(C)[C@H]3[C@@H](O)C[C@@]21C [Loteprednol etabonate] (top concentration 46.0829 µM) | 92.8% | 110% | 493 | 520 |
| CNC(=O)CN1CCC(Oc2cc3c(Nc4cccc(Cl)c4F)ncnc3cc2OC)CC1 [Sapitinib] (top concentration 46.0829 µM) | 53.9% | 28.9% | 315 | 224 |
| CC[P](CC)(CC)=[Au][S][C@@H]1OC(COC(C)=O)[C@@H](OC(C)=O)[C@H](OC(C)=O)C1OC(C)=O (some centres not stated) [Auranofin] (top concentration 46.0829 µM) | 5.72% and 1.17% | 2.96% and -0.439% | 347 and 345 | 403 and 366 |
| NC[C@H]1O[C@H](O[C@@H]2[C@H](O)[C@@H](O[C@H]3O[C@H](CO)[C@@H](O)[C@H](N)[C@H]3O)[C@H](N)C[C@@H]2N)[C@H](O)[C@@H](O)[C@@H]1O [Kanamycin] (top concentration 46.0829 µM) | 107% | 98.1% | 562 | 513 |
| CC(C)OC(=O)C(C)(C)Oc1ccc(C(=O)c2ccc(Cl)cc2)cc1 [Fenofibrate] (top concentration 46.0829 µM) | 14.2% | 90.6% | 503 | 509 |
| C[C@H](NC(=O)Cc1cc(F)cc(F)c1)C(=O)N[C@H](C(=O)OC(C)(C)C)c1ccccc1 [GSI-9] (top concentration 46.0829 µM) | 88.9% | 77.2% | 501 | 483 |
| CC[C@]1(O)C[C@@H]2CN(CCc3c([nH]c4ccccc34)[C@@](C(=O)OC)(c3cc4c(cc3OC)N(C)[C@H]3[C@@](O)(C(N)=O)[C@H](O)[C@]5(CC)C=CCN6CC[C@]43[C@@H]65)C2)C1 [Vindesine sulfate] (top concentration 46.0829 µM) | 36.3% | 40.5% | 225 | 221 |
| CCCCCCCN(CC)CCCC(O)c1ccc(NS(C)(=O)=O)cc1.CCCCCCCN(CC)CCCC(O)c1ccc(NS(C)(=O)=O)cc1.O=C(O)/C=C/C(=O)O (configuration not stated) [Ibutilide fumarate] (top concentration 46.0829 µM) | 37.1% | 64.3% | 523 | 569 |
| Cc1noc(-c2ccc(CSCCC(=O)O)cc2)c1NC(=O)OC(C)c1ccccc1Cl (configuration not stated) (top concentration 46.0829 µM) | 108% | 87.4% | 541 | 424 |
| CCN(CC)CCCCNc1ncc2c(n1)N(C)C(=O)N(c1c(Cl)c(OC)cc(OC)c1Cl)C2 (top concentration 46.0829 µM) | 30.5% | 41.3% | 456 | 513 |
| NC(=O)c1ccc2[nH]ccc2c1 [SD-169] (top concentration 46.0829 µM) | 96.9% | 117% | 479 | 556 |
